# Test system: 565232-114-T-J1-PDC complex spheroid viability
# Test: Anticancer human tumor 565232-114-T-J1-PDC patient-derived bladder carcinoma cell line growth inhibition [CLK]
# Details: for viability, T/C: stronger effect = lower value
# Source text: A high-throughput screen of multi-cell type tumor spheroids was designed to identify active combinations of […] and targeted small molecules. Complex spheroids include a stromal component modeled by human endothelial cells (HUVEC) and fibroblasts modeled by human mesenchymal stem cells (MSCs). The concentration ranges selected for each drug and investigational agent were based upon clinically achievable concentrations if the clinical Cmax of the agent was known.
# Compounds. The drugs and investigational agents: cirtuvivint (SM08502; NSC835563), CC-671 (NSC850746), vemurafenib (NSC761431), tapotoclax (NSC804041), sotorasib (NSC818433), adagrasib (NSC831453), MRTX-1133 (NSC836407), BAY2416964 (NSC825713), copanlisib (NSC816437), inavolisib (NSC800729), abemaciclib (NSC768073), osimertinib (NSC779217), entinostat (NSC756642), eltanexor (KPT-8602, NSC794443), venetoclax (NSC766270), ceralasertib (NSC777638), bortezomib (NSC756655), olaparib (NSC753686), talazoparib (NSC767125), alisertib (NSC759677), peposertib (NSC802822), gemcitabine (NSC613327), 5-fluorouracil (NSC19893), SN-38 (NSC673596), oxaliplatin (NSC266046), paclitaxel (NSC125973), and doxorubicin (NSC123127), were obtained from the National Cancer Institute (NCI) Developmental Therapeutics Program Chemical Repository. The FDA-approved anticancer drug set is available from the Developmental Therapeutics Program at https://dtp.cancer.gov/organization/dscb/obtaining/available plates.htm. […] The stock solutions were prepared in dimethyl sulfoxide (DMSO, Sigma-Aldrich, St. Louis, MO, cat. D2650), except for the platinum complexes which were prepared in saline (Quality Biological, Gaithersburg, MD, cat. 114-055-101), at 800-fold the tested concentration and stored at -70 degrees C prior to their use. All drugs and investigational agents were tested over a range starting from a high concentration at or near the clinical Cmax and decreasing in half-log increments. If the clinical Cmax for an agent had not been determined, the highest concentration tested was 10 microM.
# Cell Culture. All cells were maintained in an incubator at 37 degrees C and 5% CO2 with 95% humidity. The PDC lines were cultured according to standard operating procedures established by the NCI PDMR. Briefly, all PDCs were thawed and cultured in Matrigel-coated flasks prepared with a working solution of 1X Ham's F-12 nutrient mix, without supplementation (Invitrogen, Waltham, MA, cat. 11765054), 100 U/mL penicillin-streptomycin (Invitrogen, cat. 15140122), and 2.5% Matrigel (Corning Inc., Corning, NY, cat. 354248) for the first three passages. The 947758-054-R-J2-PDC line was cultured in 6B/Colon 1A media, which includes advanced DMEM/F-12 (Thermo Fisher Scientific, cat. 12634028), 10 mM HEPES (Thermo Fisher Scientific, cat. 15630080), 1X GlutaMAX supplement (Thermo Fisher Scientific, cat. 35050061), 0.1 mg/mL primocin (InvivoGen, cat. ant-pm-2), 10% defined fetal bovine serum, heat inactivated (HyClone Laboratories Inc., cat. SH30070.03HI), 1.25 mM N-Acetyl-L-cysteine (Sigma-Aldrich, cat. A9165), 10 mM nicotinamide (Sigma-Aldrich, cat. N0636), 1X B-27 supplement (Thermo Fisher Scientific, cat. 17504044), 1X N-2 supplement (Thermo Fisher Scientific, cat. 17502048), and 10 microM Y-27632 dihydrochloride (Tocris Bioscience, cat. 1254). The 876862-298-R-J1-PDC was cultured in 6E media, which includes all 6B/Colon 1A media components plus 50% L-WRN conditioned media (ATCC, cat. CRL-3276), 50 ng/mL recombinant human EGF recombinant protein (hEGF; Thermo Fisher Scientific, cat. PHG0311), 10 ng/mL recombinant human fibroblast growth factor 10 (hGFG-10; PeproTech, cat. 100-26), 1 ng/mL recombinant human fibroblast growth factor 2 (hFGF-2; PeproTech, cat. 100-18B), and 1 µM prostaglandin E2 (PGE2; Tocris, cat. 2296). The 227483-062-R1-J1-PDC line was cultured in Panc media, containing all 6E components except hFGF-2, with the addition of 500 nM SB-431542 (Selleckchem, cat. S1067) and 10 nM gastrin (Tocris, cat. 3006). […]
# 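Note: spheroids exposed to compounds for 7 days before readout.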
# 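Throughout, for viability, T/C: 100% = DMSO vehicle wells with luminescence normalized to vehicle control.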
structure (smiles),measurement,setting,value
CC1COCCN1c1cc(C2(S(C)(=N)=O)CC2)nc(-c2ccnc3[nH]ccc23)n1 (stereo unspecified) + CNC(=O)c1ccc(Nc2nc(OC3CCCC3)c3c(-c4ccc5nc(C)oc5c4)c[nH]c3n2)c(OC)c1,IC50,"curve of first compound, second compound 0.0316 µM",6350 nM
same,IC50,"curve of first compound, second compound 0.1 µM",222 nM
same,IC50,"curve of first compound, second compound 0.316 µM",< 31.6 nM
same,IC50,"curve of first compound, second compound 1 µM",< 31.6 nM
same,IC50,"curve of first compound, second compound 3.16 µM",< 31.6 nM
same,IC50,"curve of first compound, second compound 10 µM",< 31.6 nM
same,"viability, T/C","second compound 0.0316 µM, first compound 0.0316 µM",95.2%
same,"viability, T/C","second compound 0.0316 µM, first compound 0.1 µM",85.1%
same,"viability, T/C","second compound 0.0316 µM, first compound 0.316 µM",93.2%
same,"viability, T/C","second compound 0.0316 µM, first compound 1 µM",79.4%
same,"viability, T/C","second compound 0.0316 µM, first compound 3.16 µM",103%
same,"viability, T/C","second compound 0.0316 µM, first compound 10 µM",23.2%
same,"viability, T/C","second compound 0.1 µM, first compound 0.0316 µM",55.6%
same,"viability, T/C","second compound 0.1 µM, first compound 0.1 µM",57%
same,"viability, T/C","second compound 0.1 µM, first compound 0.316 µM",42%
same,"viability, T/C","second compound 0.1 µM, first compound 1 µM",44.2%
same,"viability, T/C","second compound 0.1 µM, first compound 3.16 µM",30.2%
same,"viability, T/C","second compound 0.1 µM, first compound 10 µM",11.5%
same,"viability, T/C","second compound 0.316 µM, first compound 0.0316 µM",31.4%
same,"viability, T/C","second compound 0.316 µM, first compound 0.1 µM",38.3%
same,"viability, T/C","second compound 0.316 µM, first compound 0.316 µM",35.7%
same,"viability, T/C","second compound 0.316 µM, first compound 1 µM",28.6%
same,"viability, T/C","second compound 0.316 µM, first compound 3.16 µM",22%
same,"viability, T/C","second compound 0.316 µM, first compound 10 µM",9.67%
same,"viability, T/C","second compound 1 µM, first compound 0.0316 µM",24.7%
same,"viability, T/C","second compound 1 µM, first compound 0.1 µM",25.2%
same,"viability, T/C","second compound 1 µM, first compound 0.316 µM",25.9%
same,"viability, T/C","second compound 1 µM, first compound 1 µM",23.8%
same,"viability, T/C","second compound 1 µM, first compound 3.16 µM",11.1%
same,"viability, T/C","second compound 1 µM, first compound 10 µM",4.92%
same,"viability, T/C","second compound 3.16 µM, first compound 0.0316 µM",19.1%
same,"viability, T/C","second compound 3.16 µM, first compound 0.1 µM",17.4%
same,"viability, T/C","second compound 3.16 µM, first compound 0.316 µM",17.4%
same,"viability, T/C","second compound 3.16 µM, first compound 1 µM",13.3%
same,"viability, T/C","second compound 3.16 µM, first compound 3.16 µM",11.2%
same,"viability, T/C","second compound 3.16 µM, first compound 10 µM",2.86%
same,"viability, T/C","second compound 10 µM, first compound 0.0316 µM",19%
same,"viability, T/C","second compound 10 µM, first compound 0.1 µM",21.1%
same,"viability, T/C","second compound 10 µM, first compound 0.316 µM",20.5%
same,"viability, T/C","second compound 10 µM, first compound 1 µM",15.5%
same,"viability, T/C","second compound 10 µM, first compound 3.16 µM",6.6%
same,"viability, T/C","second compound 10 µM, first compound 10 µM",1.53%
C=C(F)C(=O)N1CCN(c2nc(OCC3CCCN3C)nc3c2CCN(c2cccc4cccc(Cl)c24)C3)CC1CC#N (stereo unspecified),"viability, T/C",compound 0.0316 µM,103%
same,"viability, T/C",compound 0.1 µM,103%
same,"viability, T/C",compound 0.316 µM,88.9%
same,"viability, T/C",compound 1 µM,109%
same,"viability, T/C",compound 3.16 µM,105%
same,"viability, T/C",compound 10 µM,0.24%
same,IC50,curve of compound,5680 nM
CC(Nc1ccc2c(c1)OCCn1cc(N3C(=O)OCC3C(F)F)nc1-2)C(N)=O (stereo unspecified),"viability, T/C",compound 0.0316 µM,99.5%
same,"viability, T/C",compound 0.1 µM,83.6%
same,"viability, T/C",compound 0.316 µM,92.9%
same,"viability, T/C",compound 1 µM,98.5%
same,"viability, T/C",compound 3.16 µM,92.8%
same,"viability, T/C",compound 10 µM,102%
same,IC50,curve of compound,> 10000 nM
